Experimental data published in paper PMC5073322, “Novel Natural Product-like Caged Xanthones Bearing a Carbamate Moiety Exhibit Antitumor Potency and Anti-Angiogenesis Activity In vivo” (Scientific Reports, 2016).
≈ marks a conversion by molar mass, not a printed value.

Experiments:
[1] = tested on: MDA-MB-231; assay: MTT antiproliferative assay, MDA-MB-231; conditions: Homo sapiens, MDA-MB-231, 72 h, read-out: IC50 MDA-MB-231
Method: (§1) The inhibition of tumour cell growth was measured by a modified tetrazolium (MTT) salt assay, as previously described[39]. Cells were cultured in a 96-well plate and treated with culture medium alone or different concentrations of the compounds. The cells were incubated for 72 h, and then, the MTT assay reagent was added. After a 4 h incubation, the formazan product was quantitated at 570 nm. The IC50 values (the concentrations that gave rise to 50% inhibition of cell viability) were calculated using GraphPad Prism 6 using a variable slope (four parameters).

[2] = tested on: HepG2; assay: MTT antiproliferative assay, HepG2; conditions: Homo sapiens, HepG2, 72 h, read-out: IC50 HepG2
Method: as §1

[3] = tested on: A549/taxol; assay: MTT antiproliferative assay, Taxol-resistant A549; format: cell-based; conditions: MTT, 72 h; Taxol-resistant A549; read-out: IC50 A549/taxol
Method: as §1

[4] = tested on: HCT116; assay: MTT antiproliferative assay, HCT116; conditions: Homo sapiens, HCT-116, 72 h, read-out: IC50 HCT116
Method: as §1

[5] = Water solubility by HPLC; format: physicochemical; conditions: thermodynamic from solid; deionized water, stirred overnight, HPLC 290 nm; read-out: S, water solubility
Excerpt: The physicochemical characteristics of compounds directly determine their potential drug-like properties. Assessing a compound’s physicochemical properties before performing in vivo evaluations can guide further studies and minimize the time and cost associated with drug discovery. Therefore, parallel to the in vivo study, these solubilities of these compounds in water were experimentally measured using high-performance liquid chromatography (HPLC). Based on the results of full wave scanning, 290 nm was chosen as the maximum absorption wavelength for HPLC detection.
A HPLC system with an ultraviolet (UV) detector was used to detect the solubility of the compounds. The optimal wavelength was 290 nm. Ethanol/water (85:15) was an efficient eluent at a flow rate of 0.5 mL/min. The compounds were stirred in deionized water overnight to maximize the retention of the compounds in solution. Then, the solutions were filtered and the supernatant was used as a fluid sample for HPLC detection. The permeability (Pe) of some of the compounds was tested with the help of a standard PAMPA (pION), as previously reported. PAMPA was performed on a PAMPA Explorer instrument (pION, Inc., Woburn, MA) with the PAMPA Explorer command software (Version 3.7.4.1). The compounds were diluted to 10 mM with the system solution buffer (pH 7.4). Then, 150 μL of the diluted compound solution was transferred to a UV plate, and the UV spectrum was collected and used as a reference. Then, paint the membrane with 5 μL of gastrointestinal tract (GIT) lipid. The acceptor chamber was filled with 200 μL of acceptor solution buffer, and the donor chamber was filled with 200 μL of diluted compound solution. The PAMPA sandwich was assembled and left at 25 °C for 4 h. The UV spectra (240–500 nm) from the donor and the acceptor were collected. The permeability coefficient was calculated with the PAMPA Explorer Command software (Version 3.7.4.1) based on the area under the curve (AUC) of the reference plate, the donor plate, and the acceptor plate. The permeability coefficient of the compound was tested for four times, and the data are shown as the average values. Ketoprofen (4.5×10^−6 cm/s) and propranolol (112.8×10^−6 cm/s) were used as the standards in this assay.

[6] = tested on: A549/cisplatin; assay: MTT antiproliferative assay, cisplatin-resistant A549; format: cell-based; conditions: Homo sapiens, MTT, 72 h, read-out: IC50 A549/cisplatin
[7] = tested on: HepG2, HCT116, MDA-MB-231 and A549 cells; assay: MTT antiproliferative assay, cell line panel
Method: as §1

[8] = tested on: A549; assay: MTT antiproliferative assay, A549; conditions: Homo sapiens, A549, 72 h, read-out: IC50 A549
Method: as §1

[9] = tested on: HepG2 tumours; assay: HepG2 hepatoblastoma xenograft in nude mice; format: in vivo; conditions: control groups of the IV study, dose not given
Method: Given the in vitro anti-tumour cell activity of 8n, we continued to evaluate its in vivo effect in hepatoblastoma xenograft models using previously reported methods, and the water-soluble anti-cancer drug 5-fluorouracil (5-FU) was used as a positive control. After tumours were established, the mice were IV injected with 2.5, 5, 10 or 50 mg/kg 8n; the lead compound DDO-6101 and antitumour drug 5-FU were used as controls. All mice had normal weights and quality of life in in vivo tests. […] The in vivo activity of 8n was also evaluated after oral administration. […] This observation may be attributed to the improved physicochemical properties of 8n compared to those of DDO-6101, such as aqueous solubility and cell membrane permeability, which were provided by modification with the carbamate moiety.
Figure 7 (A) The tumour diameters were measured and used to calculate the tumour volumes. The HepG2 xenograft-bearing mice were intravenously injected with 2.5, 5, 10 and 50 mg/kg 8n for 20 days. (B) After 20 days, mice were sacrificed and the individual tumours were weighed. *p < 0.05, […]; Student’s t-test (n = 6). (C) The tumour diameters were measured and used to calculate the tumour volumes. The HepG2 xenograft-bearing mice were orally administered 50 mg/kg 8n, 50 mg/kg DDO-6101 or 10 mg/kg 5-FU for 20 days.
All studies were performed in compliance with the relevant guidelines and regulations. Tumours on female nude mice were established by injecting 1×10^7 HepG2 cells on the dorsal surface. After four weeks, tumours of approximately 150 mm^3 were cut into pieces that were 3 mm×3 mm×3 mm in size and were then implanted in the dorsal surface of other female nude mice. One week later, mice implanted with xenografts of 100 mm^3 were selected, randomized, and […] injected with 2.5, 5, or 10-mg/kg 8n or vehicle daily for another three weeks. The tumour dimensions were measured daily with vernier calipers, and the tumour volumes were calculated using the formula: volume = (width)^2 × length/2.

[10] = target: Recombinant human Hsp90 protein; assay: Hsp90 ATPase activity assay; format: biochemical; conditions: ADP detection, ATP 100 μM
Excerpt: Lianru Zhang, Brian S. J. Blagg, et al. reported that GA inhibited Hsp90 ATPase in vitro[21][38]. The effects of these compounds on Hsp90 ATPase activity were examined by measuring the ability of Hsp90 to hydrolyse ATP using a homogeneous time-resolved fluorescence (HTRF) assay to determine whether the caged-xanthone-derivatives of GA inhibited Hsp90. […] The inhibition of Hsp90 could decrease client protein levels. Based on the enzymatic, structural, and antiproliferative results, 8n was chosen for further investigation.
Figure 9 (A) The caged compounds (50 μM) inhibited the Hsp90 ATPase activity in a HTRF-based inhibition assay. (B) The IC50 values for the inhibition of Hsp90 ATPase by 8n, 8o and GA as detected by the HTRF Transcreener ADP kit. […] The amount of ADP generated was detected. […] (D) The mRNA expression of VEGF was determined by real-time quantitative reverse-transcriptase polymerase chain reaction (RT-PCR) and analysed by the delta Ct method. […]
To measure the Hsp90 ATPase activity, a ADP Hunter Plus Assay kit from DiscoverX was used as previously described. […] Then, the plate was incubated for another 0.5 h after the addition of ATP (100 μM), followed by addition of the detection reagent, and the fluorescence was measured at an excitation wavelength 540 nm and emission wavelength of 620 nm using a spectrophotometer (Varioskan multimode, Thermo). […]

[11] = design: method as in PMID 23167526; conditions: cited from earlier work
[12] = tested on: Heps tumour; design: method as in PMID 25958244; conditions: Heps-transplanted mice, intravenous (IV) administration; cited from earlier work

`CC(=O)Oc1cccc2c1C(=O)C1=CC3CC4C(C)(C)OC(CC=C(C)C)(C3=O)C14O2` (stereo not shown) [Compound 1] gave an IC50 [1] of 0.97 ± 0.09 µM, an IC50 [2] of 1.07 ± 0.09 µM and an IC50 [3] of 1.62 ± 0.1 µM. It also gave an IC50 [4] of 1.49 ± 0.17 µM, a solubility [5] of 20 µM (≈ 8.45 µg/mL) and an IC50 [6] of 1.53 ± 0.2 µM. The IC50 ([7]; Homo sapiens, read-out: IC50 values, range over the cancer cell lines) was 0.97 to 1.49 µM and the IC50 [8] was 3 ± 0.8 µM.
`COc1cccc2c1C(=O)C1=CC3CC4C(C)(C)OC(CC=C(C)C)(C3=O)C14O2` (stereo not shown) [Compound 3] gave an IC50 [1] of 1.8 ± 0.06 µM, an IC50 [2] of 8.55 ± 0.43 µM and an IC50 [4] of 6.1 ± 0.19 µM. For the same compound, the solubility [5] was 10 µM (≈ 3.94 µg/mL) and the “fold less active than DDO-6101” value ([7]; three cancer cell lines) was 4–8 fold.
With `O=c1[nH]cc(F)c(=O)[nH]1` [Compound 5-FU, 5-fluorouracil, reference compound] the “inhibition of the tumour volume, control groups” value [9] was 50.95%.
Compound `CO[C@H]1/C=C\C=C(/C)C(=O)NC2=CC(=O)C(NCCN(C)C)=C(C[C@@H](C)C[C@H](OC)[C@H](O)[C@@H](C)/C=C(\C)[C@@H]1OC(N)=O)C2=O` [Compound 17-DMAG, 17-(Dimethylaminoethylamino)-17-demethoxygeldanamycin] has an IC50 [10] of 0.919 µM.
In the case of `CC(C)=CCC12OC(C)(C)C3CC(C=C4C(=O)c5c(O)cccc5OC431)C2=O` (stereo not shown) [DDO-6101, reference compound], the “inhibition of the tumour volume, control groups” value [9] is reported as 36.81%, the IC50 [1] is reported as 0.32 ± 0.09 µM and the IC50 [2] is reported as 1.14 ± 0.09 µM. For the same compound, the IC50 [3] was 0.46 ± 0.03 µM, the IC50 [4] was 0.71 ± 0.1 µM and the solubility [5] was < 5 µM. The IC50 [6] was 2.11 ± 0.1 µM and the IC50 [8] was 2.59 ± 0.17 µM.
In the case of `CC(C)=CCC12OC(C)(C)C3[C@@H](CN4CCN(C)CC4)C(C=C4C(=O)c5c(O)cccc5OC431)C2=O` (stereo partly shown) [DDO-6267], the “oral antitumor activity compared with GA” value [11] is given as “better oral antitumor activity than GA”.
In the case of `C/C(=C\CC12OC(C)(C)C3CC(C=C4C(=O)c5c(O)cccc5OC431)C2=O)COC(=O)CN(C)C` (stereo not shown) [DDO-6306], the “inhibition of tumour growth” value [12] is given as 52.6%.
